This is an account of results in the supplement of paper PMC10949913.

Common to all, as to experiment: area under concentration-response curve (viability) (AUC (a.u.)); higher = less active
Common to all, as to settings: 48 h

One test relates to CU-ACC1. The method in brief: (§1)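 In 1,536-well plates, 500–1,000 cells/well of three adrenocortical carcinoma cell lines in 5 µL medium received 23 nL of each library compound across 11 concentrations. At 48 h, CellTiter-Glo was incubated for 15 minutes at room temperature and luminescence measured. Per-plate normalisation used vehicle and empty-well controls, and only inhibitory or non-responding curve classes were kept when fitting concentration-response curves for AC50 and area under the curve.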

A further test relates to CU-ACC2. The method in brief: as §1
Another test has as its system NCI-H295R. An outline of the steps:
as §1

With `C/C1=C/C[C@@H](/C(C)=C/c2csc(C)n2)OC(=O)C[C@H](O)C(C)(C)C(=O)[C@H](C)[C@@H](O)[C@@H](C)CCC1`, the “area under concentration-response curve” value was determined as 480 in the test on CU-ACC1, 567 in the test on CU-ACC2 and 426 in the test on NCI-H295R.
For `O=C(Nc1ccc2c(c1)CCN(Cc1ncn[nH]1)C2)c1ccccc1-c1ccc(C(F)(F)F)cc1` the same measures were 374, 505 and 476.
For `C[S+]([O-])(=O)C1=CC=C(C=C1)C/2=C(/C(=O)OC2)C3=CC=CC=C3` the same measures were 407, 467 and 424.
As for `O=C(O)CSCC(=O)NC1CCSC1=O` (stereo not given), the figures for the “area under concentration-response curve” value in the test on CU-ACC1, with CU-ACC2 and in the test with NCI-H295R were 379, 415 and 405, respectively.
For `C1CN\2C[C@@H](\N=C2S1)C3=CC=CC=C3` the same measures were 506, 626 and 575.
In the case of `Cc1ccc([S+](=O)([O-])N[C@@H](Cc2ccccc2)C(=O)CCl)cc1`, the “area under concentration-response curve” value was found to be 530 in the test with CU-ACC1, 628 in the test with CU-ACC2 and 584 in the test on NCI-H295R.
In the same order, the values of `C[C@@H]1CC2=C(C=C3OCOC3=C2)C(=N\N1C(C)=O)/C4=CC=C(N)C=C4` are 394, 398 and 406.
In the case of `Nc1nc(N)c2nc(-c3cccc(O)c3)c(-c3cccc(O)c3)nc2n1`, the “area under concentration-response curve” value was 448 with CU-ACC1, 499 in the test with CU-ACC2 and 483 with NCI-H295R.
Consider `CC(C)N1C(=O)NC(=C/C1=O)\N[C@@H](C)C2=CC=CC=C2`, for which the figures for the “area under concentration-response curve” value in the test with CU-ACC1, with CU-ACC2 and with NCI-H295R were 471, 552 and 497, respectively.
On to `CC(=O)OCCN1C(=O)c2c(C)nc3ccc([S+](=O)([O-])N4CCOCC4)cc3c2C1=O`, for which the “area under concentration-response curve” value worked out at 547 with CU-ACC1, 653 in the test on CU-ACC2 and 581 in the test with NCI-H295R.
As for `Cc1cc2c(cc1C1(c3ccc(C(=O)O)cn3)CC1)C(C)(C)CCC2(C)C`, the “area under concentration-response curve” value in the test on CU-ACC1 was 504; in the test with CU-ACC2 it was 598; with NCI-H295R, 514.
As for `CCN(CCCOc1ccc2c(Nc3cc(CC(=O)Nc4cccc(F)c4)[nH]n3)ncnc2c1)CCOP(=O)(O)O`, the “area under concentration-response curve” value with CU-ACC1 amounted to 471; in the test with CU-ACC2 it was 579; with NCI-H295R, 495.
For `CC(C)[C@H]1C(=O)N[C@@H](CCCN=C(N)N)C(=O)NCC(=O)N[C@@H](CC(=O)O)C(=O)N[C@H](Cc2ccccc2)C(=O)N1C` the same measures were 443, 624 and 601.
In the same order, the values of `O=C(N[C@H]1CN2CCC1CC2)c1ccc(Cl)cc1` are 495, 616 and 554.
In the same order, the values of `C/C=C/C(=O)N(CC)c1ccccc1C` are 417, 468 and 441.
Consider `Nc1nc(F)nc2c1ncn2[C@@H]1O[C@H](CO)[C@@H](O)[C@@H]1O`, for which the “area under concentration-response curve” value with CU-ACC1 was 528; in the test on CU-ACC2, 577; in the test with NCI-H295R it was 510.
`Cc1ccc(/C=N/NC(=O)c2ccccc2Oc2ccccc2)o1`: the “area under concentration-response curve” value came out at 440 with CU-ACC1, 491 in the test on CU-ACC2 and 421 in the test on NCI-H295R.
In the same order, the values of `Nc1cccc(-c2cc3c(Oc4cccc(O)c4)ncnc3[nH]2)c1` are 524, 534 and 530.
With `COc1ccc2c(OCc3nnc4ccc(-c5ccccc5)nn34)ccnc2c1`, the “area under concentration-response curve” value with CU-ACC1 came out at 520; in the test with CU-ACC2, 609; in the test on NCI-H295R it was 589.
Turning to `C/C=C(/C)C(=O)O[C@H]1C(C)=CC23C(=O)C(C=C(CO)[C@@H](O)[C@]12O)[C@H]1[C@@H](C[C@H]3C)C1(C)C` (stereo not given in full), the figures for the “area under concentration-response curve” value with CU-ACC1, in the test on CU-ACC2 and in the test with NCI-H295R were 399, 505 and 484, respectively.
For `CC1=C(CC(=O)O)c2cc(F)ccc2/C1=C\c1ccc([S+](C)[O-])cc1` (stereo not given) the same measures were 526, 647 and 573.
Turning to `CC(=O)SCC(Cc1ccccc1)C(=O)NCC(=O)OCc1ccccc1` (stereo not given), the “area under concentration-response curve” value was 556 in the test on CU-ACC1, 582 in the test on CU-ACC2 and 573 with NCI-H295R.
For `CCCCC(=O)O[C@@]1([C@@H](C)C[C@H]2[C@@H]3CCC/4=C/C(=O)/C=C\[C@]4(C)[C@@]3(F)[C@@H](O)C[C@]12C)C(=O)CO` the same measures were 455, 555 and 462.
Take `CCCOc1ccc2[nH]c(NC(=O)OC)nc2c1`: the “area under concentration-response curve” value was determined as 499 in the test with CU-ACC1, 568 with CU-ACC2 and 480 in the test with NCI-H295R.
In the case of `Cn1cnc2c(F)c(Nc3ccc(Br)cc3Cl)c(C(=O)NOCCO)cc21`, the results for the “area under concentration-response curve” value in the test on CU-ACC1, in the test on CU-ACC2 and in the test on NCI-H295R were 463, 493 and 500, respectively.
As to `CC(=O)O[C@@]12CO[C@@H]1C[C@H](O)[C@]3(C)[C@@H]2[C@H](OC(=O)C4=CC=CC=C4)[C@]5(O)C[C@H](O)/C(=C(/[C@@H](O)C3=O)C5(C)C)C`, the figures for the “area under concentration-response curve” value in the test with CU-ACC1, in the test on CU-ACC2 and with NCI-H295R were 507, 539 and 491, respectively.
For `CC(C)(Oc1ccc(C2CC2(Cl)Cl)cc1)C(=O)O` (stereo not given) the same measures were 502, 483 and 526.
In the same order, the values of `O=C(O)[C@@H](c1ccc(OCc2ccc3ccccc3n2)cc1)C1CCCC1` are 454, 561 and 493.
For `OC[C@H]1O[C@H]([C@H](O)[C@@H]1O)N2/C=C\C=N/C2=O` the same measures were 525, 609 and 583.
For `OC[C@H]1OC(O)C[C@@H](O)[C@@H]1O` (stereo not given in full), the “area under concentration-response curve” value was found to be 562 in the test with CU-ACC1, 694 with CU-ACC2 and 607 in the test on NCI-H295R.
For the compound `CO[C@H]1/C=C/O[C@@]2(C)Oc3c(C)c(O)c4c(O)c(c5c(nc6cc(C)ccn65)c4c3C2=O)NC(=O)/C(C)=C\C=C\[C@H](C)[C@H](O)[C@@H](C)[C@@H](O)[C@@H](C)[C@H](OC(C)=O)[C@@H]1C`, the “area under concentration-response curve” value came to 475 in the test on CU-ACC1, 557 with CU-ACC2 and 529 with NCI-H295R.
In the same order, the values of `COc1ccc(COc2cc3oc(=O)c4cc(C(C)O)ccc4c3cc2OC)cc1` (stereo not given) are 356, 506 and 466.
In the same order, the values of `C[C@H](O)[C@H]1[C@@H]2[C@H](C)C(=C(\N2C1=O)C(O)=O)/S[C@@H]3CN[C@H](CN[S+](N)([O-])=O)C3` are 516, 643 and 578.
For `NNc1nncc2ccccc12` the same measures were 525, 568 and 534.
For the compound `OC[C@H]1OCC(O1)[N@@]2C=CC(N)=NC2=O` (stereo not given in full), the “area under concentration-response curve” value with CU-ACC1 was found to be 423; in the test on CU-ACC2, 451; with NCI-H295R, 494.
For `N#Cc1ccc(C(c2ccc(C#N)cc2)n2cncn2)cc1` the same measures were 488, 428 and 516.
In the same order, the values of `CC1=C(/C=C/C(C)=C/C=C/C(C)=C/C(=O)O)C(C)(C)CCC1` are 503, 592 and 476.
In the same order, the values of `COc1ccc(-n2cnc3cc(C(=O)N4CCCCC4)ccc32)cc1` are 502, 534 and 479.
Regarding `CCCCOC(=O)N[S+](=O)([O-])c1sc(CC(C)C)cc1-c1ccc(Cn2ccnc2)cc1`, the “area under concentration-response curve” value with CU-ACC1 is 357; with CU-ACC2, 412; with NCI-H295R, 460.
For `CC(C)(C)NCC(O)c1ccc(O)c(CO)c1` (stereo not given) the same measures were 504, 598 and 567.
